Laboratory results from ChEMBL document CHEMBL1201862, “PubChem BioAssay data set” (2004).
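The compound was tested at five concentrations on cells cultured in 96-well plates, with a 48-hour exposure period. GI50: concentration for 50% inhibition of growth.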 Calls of active or inactive are those of the source. No stated cut-off is given here; in the data, active = GI50 up to about 1.1 µM and inactive = higher.

Key:
Assay in all cases: NCI anticancer screen, dose series, 48 h
MCF7 = tested on: MCF7
NCI-H226 = tested on: NCI-H226
HCT-116 = tested on: HCT-116
M14 = tested on: M14
786-0 = tested on: 786-0
SF-539 = tested on: SF-539
NCI-H23 = tested on: NCI-H23
K562 = tested on: K562
MDA-N = tested on: MDA-N
MOLT-4 = tested on: MOLT-4
Malme-3M = tested on: Malme-3M
A549 = tested on: A549
DU-145 = tested on: DU-145
SK-MEL-5 = tested on: SK-MEL-5
SN12C = tested on: SN12C
SK-MEL-2 = tested on: SK-MEL-2
SW-620 = tested on: SW-620
HOP-92 = tested on: HOP-92
OVCAR-3 = tested on: OVCAR-3

COc1cc(-c2cc(=O)c3c(OC)c(OC)c(OC)cc3o2)c(OC)c(OC)c1OC
GI50 (MCF7): > 75 µM (inactive)
GI50 (NCI-H226): > 75 µM (inactive)
GI50 (HCT-116): > 75 µM (inactive)
GI50 (M14): > 75 µM (inactive)
GI50 (786-0): > 75 µM (inactive)
GI50 (SF-539): > 75 µM (inactive)
GI50 (NCI-H23): > 75 µM (inactive)
GI50 (K562): 39.1 µM (inactive)
GI50 (MDA-N): > 75 µM (inactive)
GI50 (MOLT-4): 40.2 µM (inactive)
GI50 (Malme-3M): > 75 µM (inactive)
GI50 (A549): > 75 µM (inactive)
GI50 (DU-145): > 75 µM (inactive)
GI50 (SK-MEL-5): 53.7 µM (inactive)
GI50 (SN12C): > 75 µM (inactive)
GI50 (SK-MEL-2): 45.6 µM (inactive)
GI50 (SW-620): > 75 µM (inactive)
GI50 (HOP-92): 14 µM (inactive)
GI50 (OVCAR-3): 51.2 µM (inactive)

CN(C)c1ccc(/C=C/C=c2/c3ccccc3n3c2cc(-c2ccccc2)[n+]3C)cc1
GI50 (MCF7): 0.0935 µM (active)
GI50 (NCI-H226): 0.454 µM (active)
GI50 (HCT-116): 0.0386 µM (active)
GI50 (M14): 0.215 µM (active)
GI50 (786-0): 0.252 µM (active)
GI50 (SF-539): 0.171 µM (active)
GI50 (NCI-H23): 0.188 µM (active)
GI50 (K562): 0.0512 µM (active)
GI50 (MDA-N): 0.234 µM (active)
GI50 (MOLT-4): 0.0881 µM (active)
GI50 (Malme-3M): 0.492 µM (active)
GI50 (A549): 0.26 µM (active)
GI50 (DU-145): 0.0931 µM (active)
GI50 (SK-MEL-5): 0.169 µM (active)
GI50 (SN12C): 0.243 µM (active)
GI50 (SK-MEL-2): 4.54 µM (inactive)
GI50 (SW-620): 0.0731 µM (active)
GI50 (HOP-92): 0.318 µM (active)
GI50 (OVCAR-3): 0.0746 µM (active)

COc1cc2c3cc1Oc1c(OC)c(OC)cc4c1C(=NCC4)Cc1ccc(cc1)Oc1cc(ccc1O)C[C@H]3N(C)CC2
GI50 (MCF7): 25.8 µM (inactive)
GI50 (NCI-H226): 22.6 µM (inactive)
GI50 (HCT-116): 12 µM (inactive)
GI50 (M14): 16.3 µM (inactive)
GI50 (786-0): 10.4 µM (inactive)
GI50 (SF-539): 14.8 µM (inactive)
GI50 (NCI-H23): 19.1 µM (inactive)
GI50 (K562): 12.7 µM (inactive)
GI50 (MDA-N): 16.6 µM (inactive)
GI50 (MOLT-4): 11.9 µM (inactive)
GI50 (Malme-3M): 0.601 µM (active)
GI50 (A549): 37.5 µM (inactive)
GI50 (DU-145): 25.4 µM (inactive)
GI50 (SK-MEL-5): 12.2 µM (inactive)
GI50 (SN12C): 22.9 µM (inactive)
GI50 (SK-MEL-2): 16.7 µM (inactive)
GI50 (SW-620): 17.3 µM (inactive)
GI50 (HOP-92): 13.6 µM (inactive)
GI50 (OVCAR-3): 17.7 µM (inactive)

C=CC[C@H](O)[C@@](NC(=O)OCc1ccccc1)(Sc1ccc(C)cc1)C(F)(F)F
GI50 (MCF7): 23.5 µM (inactive)
GI50 (NCI-H226): 16.5 µM (inactive)
GI50 (HCT-116): 20.5 µM (inactive)
GI50 (M14): 20.7 µM (inactive)
GI50 (786-0): 16.9 µM (inactive)
GI50 (SF-539): 14.6 µM (inactive)
GI50 (NCI-H23): 24.5 µM (inactive)
GI50 (K562): 35 µM (inactive)
GI50 (MDA-N): 19.2 µM (inactive)
GI50 (MOLT-4): 20.3 µM (inactive)
GI50 (Malme-3M): 56.8 µM (inactive)
GI50 (A549): 27.7 µM (inactive)
GI50 (DU-145): 35.7 µM (inactive)
GI50 (SK-MEL-5): 26.9 µM (inactive)
GI50 (SN12C): 17.3 µM (inactive)
GI50 (SK-MEL-2): 26.8 µM (inactive)
GI50 (SW-620): 32.1 µM (inactive)
GI50 (HOP-92): 38.6 µM (inactive)
GI50 (OVCAR-3): 21.8 µM (inactive)

Cn1c2c3c(F)c(F)ccc3nc-2cc2ccccc21
GI50 (MCF7): 0.431 µM (active)
GI50 (NCI-H226): 2.59 µM (inactive)
GI50 (HCT-116): 0.125 µM (active)
GI50 (M14): 2.11 µM (inactive)
GI50 (786-0): 0.519 µM (active)
GI50 (SF-539): 2.06 µM (inactive)
GI50 (NCI-H23): 1.4 µM (inactive)
GI50 (K562): 3.11 µM (inactive)
GI50 (MDA-N): 3.64 µM (inactive)
GI50 (MOLT-4): 0.324 µM (active)
GI50 (Malme-3M): 2.7 µM (inactive)
GI50 (A549): 2.34 µM (inactive)
GI50 (DU-145): 1.34 µM (inactive)
GI50 (SK-MEL-5): 3.04 µM (inactive)
GI50 (SN12C): 0.861 µM (active)
GI50 (SK-MEL-2): 3.27 µM (inactive)
GI50 (SW-620): 1.49 µM (inactive)
GI50 (HOP-92): 4.76 µM (inactive)
GI50 (OVCAR-3): 2.33 µM (inactive)

CS(=O)(=O)OC1CCN(C2(c3cccc(O)c3)CCCCC2)CC1
GI50 (MCF7): 31.8 µM (inactive)
GI50 (NCI-H226): > 100 µM (inactive)
GI50 (HCT-116): 31.8 µM (inactive)
GI50 (M14): 43 µM (inactive)
GI50 (786-0): 27.4 µM (inactive)
GI50 (SF-539): 27.4 µM (inactive)
GI50 (NCI-H23): 46.5 µM (inactive)
GI50 (K562): 39.6 µM (inactive)
GI50 (MDA-N): 30.5 µM (inactive)
GI50 (MOLT-4): 27.8 µM (inactive)
GI50 (Malme-3M): > 100 µM (inactive)
GI50 (A549): > 100 µM (inactive)
GI50 (DU-145): 82.6 µM (inactive)
GI50 (SK-MEL-5): 43.5 µM (inactive)
GI50 (SN12C): 32.9 µM (inactive)
GI50 (SK-MEL-2): > 100 µM (inactive)
GI50 (SW-620): 29.9 µM (inactive)
GI50 (HOP-92): 51.3 µM (inactive)
GI50 (OVCAR-3): > 100 µM (inactive)
